From US20190046490A1, “METHODS OF TREATING LACTOSE INTOLERANCE” (Nogra Pharma Limited, priority 2016, published 2019)
Entries after “also recorded” stand apart in the source; their conditions may differ.

Tests used:
LCT activity = assay: Lactase activity in Caco-2 cells (glucose oxidase method); assay type: cell-based, human; details: Caco-2 cells, 30 mM
Description: Lactase activity was evaluated by using a glucose oxidase method (Glucose Assay Kit, Sigma). This lactase assay is based on the measurement of the amount of glucose produced following the action of lactase by incubating samples with a lactose buffer solution (0.056 mol/l lactose in a 0.1 mol/l Na-maleate buffer). For Caco-2 cells, lactase activity was determined directly from the cell monolayer. After extensive washing, the cell monolayer was incubated with lactose buffer for one hour at 37° C. The supernatant was recovered, 50 μl were diluted with 100 μl of glucose oxidase reagent and incubated at 37° C. for 1 hour. The reaction was stopped with 100 μl of H2SO4 and read by spectrophotometry at 450 nm. When lactase activity was determined from intestinal sample, tissue samples were first dounce-homogenized in 0.9% NaCl on crushed ice. These homogenates were then diluted in 0.9% NaCl ( 1/500) and 50 μl of dilution were incubated with lactose buffer and used to determine lactase activity. For each experiment, the background attributed to the remaining glucose in the samples was measured by incubating cells or cell extracts in lactose-free buffer.

[1] = target: T1, PPARγ bound to DR2 PPRE of the LCT gene promoter (Homo sapiens, UniProt P37231); assay: Chromatin immunoprecipitation of PPARγ on the LCT gene promoter in Caco-2 cells; assay type: cell-based; details: 1 mM, 24 hours
T1 construct: Chromatin immunoprecipitation (ChIP) experiments in Caco-2 cells (5×10^6 cells) stimulated for 24 hours with 1 mM GED; endogenous in cells; host or cells: Caco-2 (colonic adenocarcinoma) cells
T1 sequence (P37231 1-505): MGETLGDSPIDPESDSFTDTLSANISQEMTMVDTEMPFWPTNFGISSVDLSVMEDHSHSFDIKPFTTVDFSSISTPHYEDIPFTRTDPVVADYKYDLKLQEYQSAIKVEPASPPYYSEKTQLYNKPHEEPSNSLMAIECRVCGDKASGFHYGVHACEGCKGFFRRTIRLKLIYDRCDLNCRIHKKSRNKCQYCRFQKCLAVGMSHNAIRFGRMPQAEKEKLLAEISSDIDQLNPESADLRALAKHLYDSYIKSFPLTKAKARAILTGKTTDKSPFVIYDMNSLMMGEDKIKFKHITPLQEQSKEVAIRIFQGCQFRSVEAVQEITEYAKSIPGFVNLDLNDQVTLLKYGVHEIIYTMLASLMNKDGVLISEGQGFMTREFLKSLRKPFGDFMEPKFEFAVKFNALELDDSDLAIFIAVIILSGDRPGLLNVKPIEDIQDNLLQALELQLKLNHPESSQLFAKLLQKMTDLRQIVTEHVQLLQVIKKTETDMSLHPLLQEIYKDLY
T1 sequence (P19793 1-462 partner): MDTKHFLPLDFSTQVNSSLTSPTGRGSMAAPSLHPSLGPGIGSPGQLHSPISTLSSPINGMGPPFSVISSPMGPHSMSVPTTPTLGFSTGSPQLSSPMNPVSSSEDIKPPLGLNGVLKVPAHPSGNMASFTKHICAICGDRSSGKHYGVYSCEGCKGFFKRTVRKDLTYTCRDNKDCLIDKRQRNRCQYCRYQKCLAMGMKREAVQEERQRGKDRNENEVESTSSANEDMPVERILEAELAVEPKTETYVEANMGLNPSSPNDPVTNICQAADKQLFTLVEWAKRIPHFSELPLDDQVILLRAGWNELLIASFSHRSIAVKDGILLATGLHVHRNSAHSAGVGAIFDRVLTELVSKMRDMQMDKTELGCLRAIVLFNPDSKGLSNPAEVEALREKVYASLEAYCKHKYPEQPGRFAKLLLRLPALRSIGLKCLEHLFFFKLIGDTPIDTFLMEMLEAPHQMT
Description: The physical binding of PPARγ onto the LCT gene promoter was studied by Chromatin immunoprecipitation (ChIP) experiments in Caco-2 cells (5×10^6 cells) stimulated for 24 hours with 1 mM GED in 100 mm cell culture petri dishes. Caco-2 cells were synchronized by the addition of serum-free medium for 16 hours and then stimulated for 24 hours using the protocol described previously. Cells were then rinsed with PBS and the protein-DNA complexes were fixed by adding 1% PFA for 30 minutes at room temperature. This binding was stopped by the addition of glycine (0.125M). Cells were collected by scraping in the presence of cold PBS and protease inhibitors (Sigma). The cell pellet obtained by centrifugation was taken up in 300 μl SDS buffer (1% SDS, 10 mM EDTA, 50 mM Tris-HCl pH 8, protease inhibitors) and sonicated (Diagenode, BioruptorUCD200TM-EX) for 30 seconds, followed by 30 seconds resting time. For each immunoprecipitation, 125 μL of crosslinked sonicated sample was diluted with 225 μl of IP buffer (1% triton X-100, 150 mM NaCl, 2 mM EDTA, 20 mM Tris-HCl pH 8.1 and protease inhibitors) and pre-cleared for four hours by adding 40 μL of protein A/G beads (50% slurry protein A/G Sepharose, Clinisciences) and 5 μg of salmon sperm DNA (Invitrogen). […] DNA was then purified using the PCR Clean-up kit (Macherey-Nagel) and analyzed by PCR.

COC(Cc1ccc(N)cc1)C(=O)O (centres unmarked) [GED, 3-(4′-aminophenyl)2-methoxypropionic acid]
LCT activity relative to control cells (LCT activity): significant increase; also recorded: significantly upregulated
increase of the amount of PPARγ bound to the DR2 PPRE compared to unstimulated cells [1]: 2 fold
